Experiments:
[1] = ORACFL test (Oxygen Radical Absorbance Capacity) using fluorescein/AAPH; format: physicochemical; conditions: compounds at 10 μM; for ORACFL: mean ± SEM of three independent experiments in triplicate
Procedure: The antioxidant properties of the compounds according to the invention were evaluated using a ORACFL test using fluorescein (J. Agric. Food Chem., 2004 52, 48-54; J. Agric. Food Chem., 2005, 53, 4290-4302). As such, peroxide radicals, generated in the presence of AAPH (2,2′-azobis(2-methylpropionamidine)dihydrochloride) at 37° C., react with this fluorescent sensor in order to give a non-fluorescent product. The protective effect of the test compounds can then be determined by following the decay curve of the fluorescence of the fluorescein over time and be measuring the area under the curve (AUC) of the sample in relation to that of a control corresponding to an absence of antioxidant.
The trolox (6-hydroxy-2,5,7,8-tetramethylchroman-2-carboxylic acid), a water-soluble analogue of vitamin E, is used as a standard for calculating the antioxidant capacity (ORACFL) of the compounds tested at 10 μM, expressed in […] of tested compound. This value is as such obtained using the straight-line calibration equation giving the area under the curve according to the various concentrations of trolox (Bioorg. Med. Chem., 2015, 23, 1135-1148) (FIG. 11).
A solution of fluorescein (FL) (12 nM; 150 μL) is introduced into a black 96-well plate (Dutscher, Brumath, France). The compounds to be tested (1-20 μM; 25 μL) or trolox (1-50 μM; 25 μL) dissolved in D-PBS are added into each well. After equilibration of the plate during an incubation at 37° C. for a minimum of 30 min, the radical reactions are initiated using a solution of AAPH prepared extemporaneously (30 mM; 25 μL). The fluorescence (λEx: 485 nm; λEm: 520 nm) is measured every 90 seconds for 60 cycles using a temperature-controlled Tecan Infinite® 200 PRO microplate reader (measurements taken in triplicates during three independent experiments).

[2] = tested on: low-density lipoproteins (LDLs); test: Antiradical properties: inhibition of lipid peroxidation in AAPH-induced oxidation of LDLs; format: biochemical; conditions: for anti-radical properties compared with Dap-Pip and vitamin E: concentrations from 1 to 10 μM; for antioxidant effect: concentrations ranging from 1 to 100; for antioxidant properties: low concentrations of about 1 μM
Procedure: The antiradical properties of the various compounds are determined by inhibition of the lipid peroxidation in the in vitro model of the oxidation of the low-density lipoproteins (LDLs) (Free Radic. Biol. Med., 1992, 13, 341-390). The lipid peroxidation is initiated by the attack by free radicals of a double bond of a polyunsaturated fatty acid present in the LDLs. […] Once initiated, the oxidation of the LDLs is a chain reaction of lipid peroxidation generated by the free radicals. The oxidation in vitro of the LDLs is induced at 37° C. by the adding of the water-soluble compound 2,2′-Azobis(2-methylpropionamidine)dihydrochloride (AAPH), which generates free radicals during the spontaneous thermal breakdown thereof
Briefly, the oxidation, carried out in a 96-well plate, is induced at 37° C. by adding 20 μL of a solution of AAPH at 2 mM in D-PBS at 160 μL of LDL (100 μg/mL) in the presence or absence of 20 μL of the various solutions of the compounds to be tested dissolved in D-PBS (0.1 to 100 μM in final concentrations). The LDLs alone without adding AAPH are used as a negative control. Each oxidation is carried out in double. During the oxidation, the formation of the conjugated dienes is followed by the measurement of the optical density at 234 nm every 10 minutes for 8 h at 37° C. using a temperature-controlled TECAN spectrophotometer. The vitamin E (α-tocopherol) which is a powerful antioxidant recognised in this in vitro model is used as a reference molecule (J. Nutr. Biochem., 2012, 23, 845-51).

[3] = tested on: murine endothelial brain cells (bEnd.3); test: Anti-apoptotic properties after MGO-induced apoptosis (ELISA) on bEnd.3; format: cell-based; conditions: bEnd.3, pretreated 30 min with 10 or 100 μM, then 2 mM MGO, 24 h
Procedure: (§1) The apoptosis of cells is evaluated by an ELISA method using two murine monoconal antibodies with one directed against the DNA and the other against the histones ([…] Cell Death Detection kit, Roche, Meylan, France). This technique makes it possible to specifically measure the mono- and oligo-nucleosomes in the cytoplasmic fraction of the cell lysates.
(§2) Briefly, the cells are inoculated in 96-well or 24-well plates at a rate of 5.10^3 cells/well for the Bend.3 and PC12 and 75.10^3 cells/well for the MRCS in the suitable medium until subconfluence. The cells are then washed with PBS, then treated with various concentrations (10 μM, 100 μM) of the products to be tested in triplicates for 30 min to 1 h (cellules PC12 and Bend.3) or 1 h (cellules MRCS) at 37° C. The solution of MGO (1 mM for the cellules PC12, 2 mM for the cellules Bend.3 and MRCS) is then added for an incubation of 24 h. […] A peroxidase combined with anti-DNA antibodies then reacts in the presence of the substrate thereof, ABTS (diammonium 2,2′-azino-bis(3-ethylbenzothiazoline-6-sulphonate) and H2O2 in order to give a green derivative of which the optical density reflects the level of apoptosis. The measurement of the absorbance is taken at 405 nm using a Perkin Elmer 2103 Envision® microplate reader. A positive control is carried out in the presence of MGO alone. […]

[4] = tested on: rat pheochromocytoma cells, treated as neuronal cells (PC12); test: Anti-apoptotic properties after MGO-induced apoptosis (ELISA) on PC12; format: cell-based; conditions: 24 h
Procedure: as §1
Briefly, the cells are inoculated in 96-well or 24-well plates at a rate of 5.10^3 cells/well for the Bend.3 and PC12 and 75.10^3 cells/well for the MRCS in the suitable medium until subconfluence. The cells are then washed with PBS, then treated with various concentrations (10 μM, 100 μM) of the products to be tested in triplicates for 30 min to 1 h (cellules PC12 and Bend.3) or 1 h (cellules MRCS) at 37° C. The solution of MGO (1 mM for the cellules PC12, 2 mM for the cellules Bend.3 and MRCS) is then added for an incubation of 24 h. The concentrations of MGO for each cell type were chosen according to literature and a cytotoxicity test (CCK8) that we conducted. The solution of lyse is then added to each well for 30 min at room temperature. The cell lysates are then centrifuged at 200 g for 10 min. Twenty microliters of this cell lysate is then used for the ELISA according to the procedure described by the supplier. The cell lysates are as such applied to a plate covered with anti-Histones antibodies making it possible to view the fragmentation of the DNA. A peroxidase combined with anti-DNA antibodies then reacts in the presence of the substrate thereof, ABTS (diammonium 2,2′-azino-bis(3-ethylbenzothiazoline-6-sulphonate) and H2O2 in order to give a green derivative of which the optical density reflects the level of apoptosis. The measurement of the absorbance is taken at 405 nm using a Perkin Elmer 2103 Envision® microplate reader. A positive control is carried out in the presence of MGO alone.
The apoptosis of the cells is expressed by the mean±standard deviation of triplicates forming a representative experiment or of three independent experiments conducted in triplicate.

[5] = tested on: human fibroblasts (MRC-5); test: Anti-apoptotic properties after MGO-induced apoptosis (ELISA) on MRC-5; format: cell-based; conditions: MRC-5, pretreated 1 h with 10 or 100 μM, then 2 mM MGO, 24 h
Procedure: as §1, §2

[6] = lower concentrations, 0.1 to 10 μM
[7] = PC12, pretreated 30 min with 10 or 100 μM, then 1 mM MGO

Row | Compound | antioxidant capacity (ORACFL), in words [1] | ORACFL [1] | anti-radical properties compared with Dap-Pip and vitamin E [2] | antioxidant / pro-oxidant behaviour ([2]; concentrations ranging from 50 to 100) | antioxidant / pro-oxidant behaviour [2, 6] | anti-apoptotic properties [3] | anti-apoptotic properties [4, 7] | antioxidant / pro-oxidant behaviour ([2]; concentrations ranging from 25 to 100) | anti-apoptotic properties [5] | antioxidant effect [2] | antioxidant properties [2] | anti-apoptotic properties ([4]; PC12, pretreated 1 h, 100 μM, 1 mM MGO, three independent experiments in triplicate)
1 | NCC(N)CCCCNC(=O)c1cc(O)c(O)c(O)c1 (stereo not shown) [Compound 30b, N-(5,6-diaminohexyl)-3,4,5-trihydroxybenzamide] | most active | 2.59 ± 0.35 μmol TE/μmol | higher than those of the 2nd generation Dap-Pip derivative, and even those of vitamin E | highly pro-oxidant | highly antioxidant | very interesting anti-apoptotic properties starting at 10 μM | this trend is confirmed at 100 μM | – | – | – | – | –
2 | COc1cc(/C=C/C(=O)N2CCN(C(=O)CCC(N)CN)CC2)ccc1O (stereo not shown) [Compound 29a, (E)-4,5-diamino-1-(4-(3-(4-hydroxy-3-methoxyphenyl)acryloyl)piperazin-1-yl)pentan-1-one] | – | 2.05 ± 0.23 μmol TE/μmol | – | – | pro-oxidants | – | – | antioxidants | – | – | – | –
3 | NCC(N)CCCCNC(=O)CCn1cccc(O)c1=O (stereo not shown) [Compound 37b, N-(5,6-diaminohexyl)-3-(3-hydroxy-2-oxopyridin-1(2H)-yl)propanamide] | – | 0.99 ± 0.09 μmol TE/μmol | – | – | – | – | – | – | promising anti-apoptotic properties at 100 μM | – | – | –
4 | NCC(N)CCC(=O)NCCCn1cccc(O)c1=O (stereo not shown) [Compound 37c, 4,5-diamino-N-(3-(3-hydroxy-2-oxopyridin-1(2H)-yl)propyl)pentanamide] | most active | 1.03 ± 0.03 μmol TE/μmol | higher than those of the 2nd generation Dap-Pip derivative, and even those of vitamin E | – | – | very interesting anti-apoptotic properties starting at 10 μM | very interesting anti-apoptotic properties starting at 10 μM | – | promising anti-apoptotic properties at 100 μM | increasing antioxidant effect | best antioxidant properties | confirmed
5 | NCC(N)CCCNC(=O)CCn1cccc(O)c1=O (stereo not shown) [Compound 37a, N-(4,5-diaminopentyl)-3-(3-hydroxy-2-oxopyridin-1(2H)-yl)propanamide] | – | 0.58 ± 0.02 μmol TE/μmol | higher than those of the 2nd generation Dap-Pip derivative, and even those of vitamin E | – | – | – | – | – | – | increasing antioxidant effect | best antioxidant properties | –

Reference: patent US10464920B2, “Vicinal primary diamines associated with metal and/or free radical chelation motifs, and active against carbonyl and oxidative stress, and use thereof” (UNIVERSITE AMIENS PICARDIE JULES VERNE, priority 2015, dated 2019)
